# Patent EP2431041A1, “PHARMACEUTICAL COMPOSITION FOR TREATING CARDIOVASCULAR DISORDER AND USE THEREOF” (Chengdu Kanghong Pharmaceutical Co., Ltd., priority 2009, dated 2010)
# Legend:
# Beagle canines = test: long-term toxicity test in canine (21 days): ALT in blood and other indices; format: in vivo; conditions: intragastric once per day
# Description: Animals: Conventional, healthy adult Beagle canines, evenly composed of males and females, 6-8 month-old, body weight of 9 - 11 kg.
# Medicaments: Z01 (echinocystic acid:oleanolic acid = 3:1, prepared by the method in Example 4, in which the total content of the echinocystic acid and the oleanolic acid is 99%), in-house-made off-white tablet, Lot number: 090205; Z02 (echinocystic acid:oleanolic acid = 1:1, prepared by the method in Example 1, in which the amount of echinocystic acid and oleanolic acid accounts to 94.2% of the amount of the extract), in-house-made off-white tablet, Lot number: 090206; in-house-made echinocystic acid EA (containing 98.5% of echinocystic acid), pure-white powder, Lot number: 090107; physiological saline, colorless clarified liquid, provided by Chengdu QingShan LiKang Pharmarceutical co., Ltd., Lot number: A0803025; Alanine Transarninase (ALT) Kit, provided by Sichuan MiKe Science & Technology Co., Ltd., Lot number: 1007071.
# Major instruments: a fully automated blood biochemistry analyzer (Roche Integra 400 Plus, Switzerland), a fully automated hematology analyzer (Abbott CELL-DYN 3700SL, USA), a fully automated blood coagulation analyzer (SYSMEX CA-500, Japan), a four-channel physiological recording system (RM6240, Chengdu Instrument Factory, China), electronic balance, etc.
# Procedure: The normal Beagle canines were subjected to quanrantine for two weeks and a dog with abnormal parameters was rejected. The selected dogs were assigned randomly into ten groups: blank control group, low dose Z01 group (the dosage of echinocystic acid, 50 mg/kg), medium dose Z01group (the dosage of echinocystic acid, 150 mg/kg), high dose Z01 group (the dosage of echinocystic acid, 250 mg/kg), Z02 low dose group (the dosage of echinocystic acid, 50 mg/kg), medium dose Z02 group (the dosage of echinocystic acid, 150 mg/kg), high dose Z02 group (echinocystic acid is 250 mg/kg), low dose EA group (50mg/kg), medium dose EA group (150mg/kg), high dose EA group (250mg/kg), with 8 animals per group evenly composed of males and females. All of the dogs in individual groups were intragastrically administered at a volume of 10 ml/kg, once per day and successively for 21 days. Prior to and at Day 21 after the administration, samples of urine excreted naturally in the morning and blood from forelimb vein were collected respectively for urine routine, blood routine, and coagulation-time determination, meanwhile the lead II electrocardiogram was traced. Prior to the administration and at Day 4, Day 7, Day 14, and Day 21 after the first administration, blood samples were collected from the canine forelimb vein and assayed on the biochemical indicator associated with liver function. In twenty-four hours after the final administration, the animals in each group were dissected, autopsied systematically and observed with naked eyes. The parenchymal organs were weighed, subjected to calculation of organ coefficients, and examined histopathologically. […] Pathologic results were descriptively discussed.
# [1] = tested on: rat with an acute myocardial ischemia caused by PIT; test: rat myocardial ischemia caused by pituitrin (PIT), ST segment of ECG (Test Example 5); format: in vivo, SD rats; conditions: for ΔST Σ: sum of ST segment shift; for ΔST 10 sec / ΔST 30 sec / ΔST 1 min / ΔST 2 min / ΔST 4 min / ΔST 6 min / ΔST 8 min / ΔST 10 min / ΔST 13 min / ΔST 15 min: time after PIT injection
# Protocol: Each animal in all groups was intragastrically administered with the corresponding drug at a volume of 10 ml/kg, for 7 successive days. The rat was injected intraperitoneally with 1% sodium pentobarbital (30 mg/kg) 100 min after the final administration. When anesthetized, the animal was immobilized onto a frog board and subjected to trace of normal electrocardiogram over 2 min with Lead II. Then, PIT (1.5 IU/kg) was injected slowly over 20 s into the rat through its tail vein. The changes in the electrocardiogram were traced in 15 min after PIT injection. The data from the ST segment were collected at the time-points of 10 s, 30 s, 1 min, 2 min, 4 min, 6 min, 8 min, 10 min, 13 min, and 15 min. ST segment shifts at the various time-points after modeling were compared.
# [2] = tested on: rabbit with lipid disorders; test: lipid disorders in rabbit, serum TC and TG (Test Example 8); format: in vivo, Japanese white rabbit
# Description: Procedure: Animals were subjected to acclimation feeding for 10 days. […] After raised with the feed for 15 days, the animals were subjected to blood sampling from central ear artery while fasting. The sera were separated and analyzed for various blood lipid indices. From 40 animals raised with the high-fat feed, 30 animals were selected on the basis of TC content and assigned into five groups by randomized block design with six animals per group; six animals raised with the basal feed were used as the blank control group. […] Administration lasted for 4 weeks. […] ANOVA of randomized block design was used for comparisons among multiple groups, and SNK-q test was used for comparisons between two groups.
# Blood samples were collected from the fasting animals in each of the groups of the experiment prior to the administration and in 24 h after the final administration and assayed for the content of total cholesterol (TC) and triglyceride (TG). Table 11 Effect of the drugs in each of the groups on serum TC and TG levels ( x ± s, n =6).
# [3] = echinocystic acid content 50 mg/kg
# [4] = echinocystic acid content 150 mg/kg
# [5] = echinocystic acid content 250 mg/kg
# [6] = EA 50.8 mg/kg intragastric 7 days
# [7] = EA 12.2 mg/kg intragastric 4 weeks
# [8] = OA 17.0 mg/kg intragastric 7 days
# [9] = OA 4.0 mg/kg intragastric 4 weeks
smiles,measurement,setting,value
"CC1(C)CC[C@]2(C(=O)O)[C@H](O)C[C@]3(C)C(=CC[C@@H]4[C@@]5(C)CC[C@H](O)C(C)(C)[C@@H]5CC[C@]43C)[C@@H]2C1 [EA, echinocystic acid]","ALT at different time-points after administration, Day 4",Beagle canines; [3],41.4±9.3 U/L
same,"ALT at different time-points after administration, Day 7",Beagle canines; [3],60.3±11.6 U/L
same,"ALT at different time-points after administration, Day 14",Beagle canines; [3],58.3±9.1 U/L
same,"ALT at different time-points after administration, Day 21",Beagle canines; [3],69.7±6.2 U/L
same,"ALT, Prior to administration",Beagle canines; [3],38.8±5.8 U/L
same,"ALT at different time-points after administration, Day 4",Beagle canines; [4],42.6±8.9 U/L
same,"ALT at different time-points after administration, Day 7",Beagle canines; [4],70.6±22.3 U/L
same,"ALT at different time-points after administration, Day 14",Beagle canines; [4],121.3±19.3 U/L
same,"ALT at different time-points after administration, Day 21",Beagle canines; [4],124.5±35.3 U/L
same,"ALT, Prior to administration",Beagle canines; [4],40.3±6.2 U/L
same,"ALT at different time-points after administration, Day 4",Beagle canines; [5],45.4±9.9 U/L
same,"ALT at different time-points after administration, Day 7",Beagle canines; [5],146.5±49.0 U/L
same,"ALT at different time-points after administration, Day 14",Beagle canines; [5],167.5±43.3 U/L
same,"ALT at different time-points after administration, Day 21",Beagle canines; [5],151.3±86.6 U/L
same,"ALT, Prior to administration",Beagle canines; [5],37.3±5.2 U/L
same,ΔST Σ,[1]; [6],0.653± 0.367 mV
same,ΔST 10 sec,[1]; [6],0.089± 0.089 mV
same,ΔST 30 sec,[1]; [6],0.060± 0.053 mV
same,ΔST 1 min,[1]; [6],0.064± 0.032 mV
same,ΔST 2 min,[1]; [6],0.075± 0.063 mV
same,ΔST 4 min,[1]; [6],0.060± 0.039 mV
same,ΔST 6 min,[1]; [6],0.063± 0.045 mV
same,ΔST 8 min,[1]; [6],0.070± 0.048 mV
same,ΔST 10 min,[1]; [6],0.061± 0.042 mV
same,ΔST 13 min,[1]; [6],0.055± 0.039 mV
same,ΔST 15 min,[1]; [6],0.056± 0.048 mV
same,Serum TC After administration,[2]; [7],9.77 ± 6.30 mmol/L
same,Serum TC prior to administration,[2]; [7],15.07 ± 5.48 mmol/L
same,Serum TG After administration,[2]; [7],1.64 ± 0.89 mmol/L
same,Serum TG prior to administration,[2]; [7],2.17 ± 1.04 mmol/L
"CC1(C)CC[C@]2(C(=O)O)CC[C@]3(C)C(=CC[C@@H]4[C@@]5(C)CC[C@H](O)C(C)(C)[C@@H]5CC[C@]43C)[C@@H]2C1 [OA, oleanolic acid]",ΔST Σ,[1]; [8],0.739± 0.408Δ mV
same,ΔST 10 sec,[1]; [8],0.132± 0.113 mV
same,ΔST 30 sec,[1]; [8],0.068± 0.044 mV
same,ΔST 1 min,[1]; [8],0.079± 0.052 mV
same,ΔST 2 min,[1]; [8],0.061± 0.034 mV
same,ΔST 4 min,[1]; [8],0.082± 0.055 mV
same,ΔST 6 min,[1]; [8],0.080± 0.067 mV
same,ΔST 8 min,[1]; [8],0.073± 0.037 mV
same,ΔST 10 min,[1]; [8],0.051± 0.032 mV
same,ΔST 13 min,[1]; [8],0.060± 0.037 mV
same,ΔST 15 min,[1]; [8],0.053± 0.042 mV
same,Serum TC After administration,[2]; [9],12.05 ± 6.48 mmol/L
same,Serum TC prior to administration,[2]; [9],14.97 ± 5.22 mmol/L
same,Serum TG After administration,[2]; [9],1.83 ± 1.02 mmol/L
same,Serum TG prior to administration,[2]; [9],2.06 ± 0.44 mmol/L
